Data taken from US11608341B2, “Substituted tetrahydropyrazolo[3,4-d]pyrimidines and tetrahydropyrazolo[4,3-d]pyrimidines as C5A receptor modulators” (Idorsia Pharmaceuticals Ltd., priority 2018, dated 2023).

target: T1, C5AR1 (Homo sapiens, UniProt P21730); experiment: In vitro assay: antagonism of C5a-induced beta-arrestin recruitment (PathHunter) in CHO-K1 C5AR1 beta-arrestin cell line; type: cell-based; conditions: antagonistic activity, 1-10 nM C5a agonist, geometric mean where several measurements, read-out: C5aR IC50
T1 construct: host or cells: CHO-K1
T1 sequence (P21730 1-350): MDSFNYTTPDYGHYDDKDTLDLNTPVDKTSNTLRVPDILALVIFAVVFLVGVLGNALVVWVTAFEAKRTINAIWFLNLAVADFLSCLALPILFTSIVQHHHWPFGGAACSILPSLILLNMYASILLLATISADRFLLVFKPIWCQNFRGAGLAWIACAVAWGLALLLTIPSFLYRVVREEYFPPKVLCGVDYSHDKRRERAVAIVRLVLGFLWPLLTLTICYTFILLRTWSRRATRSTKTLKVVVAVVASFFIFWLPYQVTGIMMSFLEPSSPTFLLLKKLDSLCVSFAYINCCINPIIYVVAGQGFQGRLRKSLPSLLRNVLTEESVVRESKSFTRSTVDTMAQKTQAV
In short: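 Antagonist or DMSO added first, then C5a (1-10 nM, added at 6-fold end concentration), 1.5 h at 37 °C. PathHunter detection reagent was added for 45 min at RT before plate reading. IC50s come from antagonist serial dilutions in nmol/l and are geometric means of several measurements.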

Structure (SMILES) | IC50 [nM]
COC(=O)N1CC(n2cc3c(n2)N(Cc2ccccc2C(F)(F)F)C(=O)N(C2CCN(c4c(C)cccc4F)CC2)C3)C1 [Example 117] | 33
Cc1cccc(F)c1N1CCC(N2Cc3cn(CC(C)(C)N)nc3N(Cc3ccccc3C(F)(F)F)C2=O)CC1 [Example 118] | 578
Cc1cccc(F)c1N1CCC(N2Cc3cn(C4CN(C(=O)N(C)C)C4)nc3N(Cc3ccccc3C(F)(F)F)C2=O)CC1 [Example 119] | 296
CNC(=O)N1CC(n2cc3c(n2)N(Cc2ccccc2C(F)(F)F)C(=O)N(C2CCN(c4c(C)cccc4F)CC2)C3)C1 [Example 120] | 1350
Cc1cccc(F)c1N1CCC(N2Cc3cn(C[C@@H]4CCN4)nc3N(Cc3ccccc3C(F)(F)F)C2=O)CC1 [Example 122] | 342
COC(=O)N1CC[C@H]1Cn1cc2c(n1)N(Cc1ccccc1C(F)(F)F)C(=O)N(C1CCN(c3c(C)cccc3F)CC1)C2 [Example 123] | 19
CCOC(=O)N1CC[C@H]1Cn1cc2c(n1)N(Cc1ccccc1C(F)(F)F)C(=O)N(C1CCN(c3c(C)cccc3F)CC1)C2 [Example 124] | 13
Cc1cccc(F)c1N1CCC(N2Cc3cn(C[C@@H]4CCN4C(=O)OC(C)C)nc3N(Cc3ccccc3C(F)(F)F)C2=O)CC1 [Example 125] | 14
CCOC(=O)N1CC(n2cc3c(n2)N(Cc2ccccc2C(F)(F)F)C(=O)N(C2CCN(c4c(C)cccc4F)CC2)C3)C1 [Example 126] | 15
Cc1cccc(F)c1N1CCC(N2Cc3cn(C4CN(C(=O)OC(C)C)C4)nc3N(Cc3ccccc3C(F)(F)F)C2=O)CC1 [Example 127] | 14
Cc1cccc(F)c1N1CCC(N2Cc3nn(C)nc3N(Cc3ncccc3C(F)(F)F)C2=O)CC1 [Example 128] | 15
Cc1cccc(F)c1N1CCC(N2Cc3cn(C[C@H]4CCN4C(=O)OC(C)(C)C)nc3N(Cc3ccccc3C(F)(F)F)C2=O)CC1 [Example 129] | 20
Cc1cccc(F)c1N1CCC(N2Cc3cn(C[C@H]4CCN4)nc3N(Cc3ccccc3C(F)(F)F)C2=O)CC1 [Example 130] | 390
Cc1cccc(F)c1N1CCC(N2Cc3cn(C4CN(C(=O)C(C)C)C4)nc3N(Cc3ccccc3C(F)(F)F)C2=O)CC1 [Example 131] | 100
Cc1cccc(F)c1N1CCC(N2Cc3cn(C4CN(C(=O)OCC(C)C)C4)nc3N(Cc3ccccc3C(F)(F)F)C2=O)CC1 [Example 132] | 8
COC(=O)N1CC[C@@H]1Cn1cc2c(n1)N(Cc1ccccc1C(F)(F)F)C(=O)N(C1CCN(c3c(C)cccc3F)CC1)C2 [Example 133] | 22
CCOC(=O)N1CC[C@@H]1Cn1cc2c(n1)N(Cc1ccccc1C(F)(F)F)C(=O)N(C1CCN(c3c(C)cccc3F)CC1)C2 [Example 134] | 13
Cc1cccc(F)c1N1CCC(N2Cc3cn(C[C@H]4CCN4C(=O)OC(C)C)nc3N(Cc3ccccc3C(F)(F)F)C2=O)CC1 [Example 135] | 17
Cc1cccc(F)c1N1CCC(N2Cc3cn(C4CN(S(C)(=O)=O)C4)nc3N(Cc3ccccc3C(F)(F)F)C2=O)CC1 [Example 136] | 163
Cc1cccc(F)c1N1CCC(N2Cc3cn(C4CN(S(=O)(=O)N(C)C)C4)nc3N(Cc3ccccc3C(F)(F)F)C2=O)CC1 [Example 137] | 81
COc1nccc(C)c1N1CCC(N2Cc3cn(C)nc3N(Cc3ncccc3C(F)(F)F)C2=O)CC1 [Example 138] | 11
Cc1cccc(F)c1N1CCC(N2Cc3cn(C4CN(C(=O)OC5COC5)C4)nc3N(Cc3ccccc3C(F)(F)F)C2=O)CC1 [Example 139] | 18
Cc1cccc(F)c1N1CCC(N2Cc3cn(C4CN(C(=O)OC5(C(F)(F)F)COC5)C4)nc3N(Cc3ccccc3C(F)(F)F)C2=O)CC1 [Example 140] | 18
Cc1cccc(F)c1N1CCC(N2Cc3cn(C4CN(C(=O)OC5(C)COC5)C4)nc3N(Cc3ccccc3C(F)(F)F)C2=O)CC1 [Example 141] | 21

Structure (SMILES) | IC50 [nM]
Cc1nnc(N2CC(n3cc4c(n3)N(Cc3ccccc3C(F)(F)F)C(=O)N(C3CCN(c5c(C)cccc5F)CC3)C4)C2)o1 [Example 142] | 32
Cc1cccc(F)c1N1CCC(N2Cc3cn(C4CN(c5nnc(C(C)C)o5)C4)nc3N(Cc3ccccc3C(F)(F)F)C2=O)CC1 [Example 143] | 17
Cc1cccc(F)c1N1CCC(N2Cc3cn(C4CN(c5nnc(C(F)(F)F)o5)C4)nc3N(Cc3ccccc3C(F)(F)F)C2=O)CC1 [Example 144] | 14
COc1nccc(C)c1N1CCC(N2Cc3nn(C)nc3N(Cc3ncccc3C(F)(F)F)C2=O)CC1 [Example 146] | 32
Cc1cccc(F)c1N1CCC(N2Cc3cn(C(=O)OC(C)C)nc3N(Cc3ccccc3C(F)(F)F)C2=O)CC1 [Example 147] | 152
Cc1cccc(F)c1N1CCC(N2Cc3cn(C(=O)OCC(C)C)nc3N(Cc3ccccc3C(F)(F)F)C2=O)CC1 [Example 148] | 341
Cc1cccc(F)c1N1CCC(N2Cc3cn(C(=O)N(C)C)nc3N(Cc3ccccc3C(F)(F)F)C2=O)CC1 [Example 149] | 70
Cc1cccc(F)c1N1CCC(N2Cc3cn(C(=O)N(C)CC(C)C)nc3N(Cc3ccccc3C(F)(F)F)C2=O)CC1 [Example 150] | 767
CC(C)=Cn1cc2c(n1)N(Cc1ccccc1C(F)(F)F)C(=O)N(C1CCN(c3c(C)cccc3F)CC1)C2 [Example 153] | 40
C=C(C)Cn1cc2c(n1)N(Cc1ccccc1C(F)(F)F)C(=O)N(C1CCN(c3c(C)cccc3F)CC1)C2 [Example 154] | 26
Cc1cccc(F)c1N1CCC(N2Cc3cn(CC(C)C)nc3N(Cc3ccccc3C(F)(F)F)C2=O)CC1 [Example 155] | 25
Cc1cccc(F)c1N1CCC(N2Cc3cn(C4CNC4=O)nc3N(Cc3ccccc3C(F)(F)F)C2=O)CC1 (stereo not drawn) [Example 157] | 17
Cc1cccc(F)c1N1CCC(N2Cc3cn(CC4(C)CC4)nc3N(Cc3ccccc3C(F)(F)F)C2=O)CC1 [Example 158] | 11
Cc1cccc(F)c1N1CCC(N2Cc3cn(CC(F)F)nc3N(Cc3ccccc3C(F)(F)F)C2=O)CC1 [Example 159] | 8
C#CC(C)(C)n1cc2c(n1)N(Cc1ccccc1C(F)(F)F)C(=O)N(C1CCN(c3c(C)cccc3F)CC1)C2 [Example 160] | 147
Cc1cccc(F)c1N1CCC(N2Cc3cn(C(C)C)nc3N(Cc3ccccc3C(F)(F)F)C2=O)CC1 [Example 161] | 7
Cc1cccc(F)c1N1CCC(N2Cc3cn(CC4(F)COC4)nc3N(Cc3ccccc3C(F)(F)F)C2=O)CC1 [Example 164] | 13
Cc1cccc(F)c1N1CCC(N2Cc3cn(CC4CC4)nc3N(Cc3ccccc3C(F)(F)F)C2=O)CC1 [Example 165] | 8
Cc1cccc(F)c1N1CCC(N2Cc3cn(CC4(C)COC4)nc3N(Cc3ccccc3C(F)(F)F)C2=O)CC1 [Example 166] | 12
Cc1cccc(F)c1N1CCC(N2Cc3cn(CC4(F)CC4)nc3N(Cc3ccccc3C(F)(F)F)C2=O)CC1 [Example 167] | 10
Cc1cccc(F)c1N1CCC(N2Cc3cn(CC(C)(C)F)nc3N(Cc3ccccc3C(F)(F)F)C2=O)CC1 [Example 168] | 6
CCn1cc2c(n1)N(Cc1ccccc1C(F)(F)F)C(=O)N(C1CCN(c3c(C)cccc3F)CC1)C2 [Example 169] | 8
Cc1cccc(F)c1N1CCC(N2Cc3cn(CC4(O)COC4)nc3N(Cc3ccccc3C(F)(F)F)C2=O)CC1 [Example 171] | 17
Cc1cccc(F)c1N1CCC(N2Cc3cn(C(C)(C)C)nc3N(Cc3ccccc3C(F)(F)F)C2=O)CC1 [Example 173] | 15
